What was measured:
Type in all cases: biochemical
Conditions in all cases: 1 μM inhibitor concentration
VEG-FR = VEG-FR kinase selectivity assay
Protocol: VEG-FR (5-20 mU diluted in 50 mM Tris pH 7.5, 0.1 mM EGTA, 1 mg/ml BSA) is assayed against a substrate peptide ([…]) in a final volume of 25.5 μl containing 50 mM Tris pH 7.5, 300 µM substrate peptide, 10 mM magnesium acetate and 0.02 mM [33P-g-ATP] (50-1000 cpm/pmole) and incubated for 30 min at room temperature. Assays are stopped by addition of 5 μl of 0.5 M (3%) orthophosphoric acid and then harvested onto P81 Unifilter plates with a wash buffer of 50 mM orthophosphoric acid.

RSK2 = RSK2 (Homo sapiens (Human), UniProt P51812); assay: RSK2 kinase selectivity assay
Chain of RSK2 (P51812 whole entry, species assumed): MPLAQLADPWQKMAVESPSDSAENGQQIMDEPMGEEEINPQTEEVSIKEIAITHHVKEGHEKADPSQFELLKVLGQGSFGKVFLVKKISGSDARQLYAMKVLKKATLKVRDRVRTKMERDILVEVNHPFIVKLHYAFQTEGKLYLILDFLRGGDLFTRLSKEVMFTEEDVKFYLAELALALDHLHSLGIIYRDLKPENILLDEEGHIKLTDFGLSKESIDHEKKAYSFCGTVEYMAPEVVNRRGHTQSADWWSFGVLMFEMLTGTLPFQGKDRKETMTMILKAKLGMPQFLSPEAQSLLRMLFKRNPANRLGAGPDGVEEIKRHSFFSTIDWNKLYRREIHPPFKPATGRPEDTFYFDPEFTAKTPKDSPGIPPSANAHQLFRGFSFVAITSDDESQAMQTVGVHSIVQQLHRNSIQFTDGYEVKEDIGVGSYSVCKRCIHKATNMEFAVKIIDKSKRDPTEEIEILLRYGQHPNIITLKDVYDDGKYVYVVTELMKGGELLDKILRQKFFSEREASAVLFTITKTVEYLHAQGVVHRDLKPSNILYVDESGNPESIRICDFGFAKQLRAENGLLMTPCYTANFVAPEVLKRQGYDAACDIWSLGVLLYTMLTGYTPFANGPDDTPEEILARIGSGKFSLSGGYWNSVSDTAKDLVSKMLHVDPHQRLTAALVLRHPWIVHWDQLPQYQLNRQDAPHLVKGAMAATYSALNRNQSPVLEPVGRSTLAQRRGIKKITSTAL
Protocol: MAPKAP-K1b (5-20 mU diluted in 20 mM MOPS pH 7.5, 1 mM EDTA, 0.01% Brij35, 5% glycerol, 0.1% b-mercaptoethanol, 1 mg/ml BSA) is assayed against substrate peptide ([…]) in a final volume of […] containing 50 mM Na-b-glycerophosphate (pH 7.5), 0.5 mM EDTA, 30 μM substrate peptide, 10 mM magnesium acetate and 0.05 mM [33P-g-ATP] (50-1000 cpm/pmole) and incubated for 30 min at room temperature. Assays are stopped by addition of 5 μl of 0.5 M (3%) orthophosphoric acid and then harvested onto P81 Unifilter plates with a wash buffer of 50 mM orthophosphoric acid.

IKKe = IKKe (Homo sapiens (Human), UniProt Q14164); assay: IKKe kinase selectivity assay
Chain of IKKe (Q14164 whole entry, species assumed): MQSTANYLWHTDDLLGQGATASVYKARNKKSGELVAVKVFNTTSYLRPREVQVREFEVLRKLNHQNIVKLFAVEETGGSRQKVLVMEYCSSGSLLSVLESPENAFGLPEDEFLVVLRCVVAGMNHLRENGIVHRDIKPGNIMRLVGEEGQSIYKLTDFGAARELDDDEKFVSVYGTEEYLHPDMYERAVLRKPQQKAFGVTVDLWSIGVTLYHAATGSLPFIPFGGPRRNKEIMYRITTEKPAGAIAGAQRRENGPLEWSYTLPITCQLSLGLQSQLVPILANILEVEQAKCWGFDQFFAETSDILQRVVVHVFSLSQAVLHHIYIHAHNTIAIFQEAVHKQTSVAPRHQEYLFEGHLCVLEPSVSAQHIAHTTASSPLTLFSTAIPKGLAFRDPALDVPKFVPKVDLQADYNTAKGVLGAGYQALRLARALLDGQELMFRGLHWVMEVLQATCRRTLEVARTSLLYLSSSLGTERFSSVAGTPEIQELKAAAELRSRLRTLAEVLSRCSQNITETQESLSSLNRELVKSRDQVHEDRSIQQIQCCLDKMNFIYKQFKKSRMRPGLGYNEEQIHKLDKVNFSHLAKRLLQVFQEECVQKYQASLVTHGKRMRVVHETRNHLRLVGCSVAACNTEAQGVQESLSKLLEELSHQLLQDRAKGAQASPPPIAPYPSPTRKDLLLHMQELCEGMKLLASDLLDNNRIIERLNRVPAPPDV
Protocol: 5-20 mU of IKKepsilon (DU14231)(diluted in 50 mM Tris (pH 7.5), 0.1 mM EGTA, 1 mg/ml BSA) is assayed against MBP in a final volume of 25.5 μl containing 50 mM Tris (pH 7.5), 0.1 mM EGTA, 0.33 mg/ml MBP, 10 mM magnesium acetate and 0.05 mM [33P-g-ATP](500-1000 cpm/pmole) and incubated for 30 mins at room temperature. Assays are stopped by addition of 5 μl of 0.5M (3%) orthophosphoric acid. Assays are harvested onto P81 Unifilter plates using a wash buffer of 50 mM orthophosphoric acid.

CHK2 = CHK2 (Homo sapiens (Human), UniProt O96017); assay: CHK2 kinase selectivity assay
Chain of CHK2 (O96017 whole entry, species assumed): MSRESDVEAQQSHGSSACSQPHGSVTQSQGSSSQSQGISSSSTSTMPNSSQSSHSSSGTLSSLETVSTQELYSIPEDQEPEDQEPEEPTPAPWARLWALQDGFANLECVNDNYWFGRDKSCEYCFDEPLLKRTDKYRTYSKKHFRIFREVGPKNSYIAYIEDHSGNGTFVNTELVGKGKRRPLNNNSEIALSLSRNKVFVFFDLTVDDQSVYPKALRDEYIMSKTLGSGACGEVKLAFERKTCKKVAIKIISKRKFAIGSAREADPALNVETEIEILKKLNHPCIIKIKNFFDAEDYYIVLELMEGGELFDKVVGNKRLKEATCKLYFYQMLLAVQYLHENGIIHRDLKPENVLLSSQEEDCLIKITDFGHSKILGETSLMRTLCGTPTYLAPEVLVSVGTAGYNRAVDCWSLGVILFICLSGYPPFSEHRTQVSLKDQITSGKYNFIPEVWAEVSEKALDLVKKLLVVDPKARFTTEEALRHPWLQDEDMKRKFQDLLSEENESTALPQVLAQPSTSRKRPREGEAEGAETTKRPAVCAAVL
Protocol: CHK2 (5-20 mU diluted in 20 mM MOPS pH 7.5, 1 mM EDTA, 0.1% b-mercaptoethanol, 0.01% Brij-35, 5% glycerol, 1 mg/ml BSA) is assayed against CHKtide substrate peptide ([…]) in a final volume of 25.5 μl containing 8 mM MOPS pH 7.0, 0.2 mM EDTA, 200 μM CHKtide, 10 mM magnesium acetate and 0.02 mM [33P-g-ATP](50-1000 cpm/pmole) and incubated for 30 min at room temperature Assays are stopped by addition of 5 μl of 0.5 M (3%) orthophosphoric acid and then harvested onto P81 Unifilter plates with a wash buffer of 50 mM orthophosphoric acid.

MST2 = MST2 (Homo sapiens (Human), UniProt Q13188); assay: MST2 kinase selectivity assay
Chain of MST2 (Q13188 whole entry, species assumed): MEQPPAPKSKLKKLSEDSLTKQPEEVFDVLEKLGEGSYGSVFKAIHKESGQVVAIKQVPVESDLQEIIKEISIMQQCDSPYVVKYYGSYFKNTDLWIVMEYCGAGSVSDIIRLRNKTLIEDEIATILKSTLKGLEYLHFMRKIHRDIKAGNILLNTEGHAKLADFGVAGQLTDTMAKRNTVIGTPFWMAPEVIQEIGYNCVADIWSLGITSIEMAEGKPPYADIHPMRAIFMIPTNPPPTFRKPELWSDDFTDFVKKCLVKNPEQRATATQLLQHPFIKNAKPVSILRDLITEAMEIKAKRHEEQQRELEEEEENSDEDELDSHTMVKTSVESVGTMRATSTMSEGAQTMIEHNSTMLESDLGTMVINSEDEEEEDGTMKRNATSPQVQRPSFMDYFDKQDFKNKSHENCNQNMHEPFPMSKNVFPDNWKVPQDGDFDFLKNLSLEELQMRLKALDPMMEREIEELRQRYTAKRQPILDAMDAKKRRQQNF
Protocol: MST2 (5-20 mU diluted in 50 mM Tris pH 7.5, 0.1 mM EGTA, 0.1% b-mercaptoethanol, 100 µM Vanadate) is assayed against MBP in a final volume of 25.5 μl containing 50 mM Tris pH 7.5, 0.05% b-mercaptoethanol, 0.33 mg/ml MBP, 10 mM magnesium acetate and 0.02 mM [33P-g-ATP] (50-1000 cpm/pmole) and incubated for 30 min at room temperature. Assays are stopped by addition of 5 μl of 0.5 M (3%) orthophosphoric acid and then harvested onto P81 Unifilter plates with a wash buffer of 50 mM orthophosphoric acid.

MNK2 = MNK2 (Homo sapiens (Human), UniProt Q9HBH9); assay: MNK2 kinase selectivity assay
Chain of MNK2 (Q9HBH9 whole entry, species assumed): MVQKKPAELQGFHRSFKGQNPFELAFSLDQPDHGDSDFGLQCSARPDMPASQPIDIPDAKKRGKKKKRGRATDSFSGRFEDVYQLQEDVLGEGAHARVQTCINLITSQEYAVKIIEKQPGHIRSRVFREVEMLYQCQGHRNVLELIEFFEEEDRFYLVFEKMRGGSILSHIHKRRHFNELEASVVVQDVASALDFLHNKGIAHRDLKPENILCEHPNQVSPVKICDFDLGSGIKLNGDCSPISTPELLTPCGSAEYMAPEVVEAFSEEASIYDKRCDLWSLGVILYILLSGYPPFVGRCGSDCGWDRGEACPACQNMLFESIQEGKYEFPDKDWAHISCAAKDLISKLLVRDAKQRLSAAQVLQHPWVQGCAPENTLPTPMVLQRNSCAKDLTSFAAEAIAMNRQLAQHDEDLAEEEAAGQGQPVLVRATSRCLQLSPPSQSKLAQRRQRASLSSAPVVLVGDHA
Protocol: 5-20 mU of MNK2 (diluted in 50 mM Tris (pH 7.5), 0.1 mM EGTA, 1 mg/ml BSA, 0.1%, b-Mercaptoethanol) is assayed against substrate peptide (eIF4E) in a final volume of 25.5 μl containing 50 mM Tris (pH 7.5), 0.1 mM EGTA, 0.1%, b-Mercaptoethanol, 0.5 mg/ml substrate peptide, 10 mM magnesium acetate and 0.05 mM [33P-g-ATP](500-1000 cpm/pmole) and incubated for 30 mins at room temperature. Assays are stopped by addition of 5 μl of 0.5M (3%) orthophosphoric acid. Assays are harvested onto P81 Unifilter plates using a wash buffer of 50 mM orthophosphoric acid.

PKA = PKA (Homo sapiens (Human), UniProt P17612); assay: PKA kinase selectivity assay
Protocol: PKA (5-20 mU diluted in 20 mM MOPS pH 7.5, 1 mM EDTA, 0.01% Brij35, 0.1% b-mercaptoethanol, 1 mg/ml BSA) is assayed against Kemptide (LRRASLG) in a final volume of 25.5 μl containing 8 mM MOPS pH 7.5, 0.2 mM EDTA, 30 μM substrate peptide, 10 mM magnesium acetate and 0.005 mM [33P-g-ATP] (50-1000 cpm/pmole) and incubated for 30 min at room temperature. Assays are stopped by addition of 5 μl of 0.5 M (3%) orthophosphoric acid and then harvested onto P81 Unifilter plates with a wash buffer of 50 mM orthophosphoric acid.

MELK = MELK (Homo sapiens (Human), UniProt Q14680); assay: MELK kinase selectivity assay
Chain of MELK (Q14680 whole entry, species assumed): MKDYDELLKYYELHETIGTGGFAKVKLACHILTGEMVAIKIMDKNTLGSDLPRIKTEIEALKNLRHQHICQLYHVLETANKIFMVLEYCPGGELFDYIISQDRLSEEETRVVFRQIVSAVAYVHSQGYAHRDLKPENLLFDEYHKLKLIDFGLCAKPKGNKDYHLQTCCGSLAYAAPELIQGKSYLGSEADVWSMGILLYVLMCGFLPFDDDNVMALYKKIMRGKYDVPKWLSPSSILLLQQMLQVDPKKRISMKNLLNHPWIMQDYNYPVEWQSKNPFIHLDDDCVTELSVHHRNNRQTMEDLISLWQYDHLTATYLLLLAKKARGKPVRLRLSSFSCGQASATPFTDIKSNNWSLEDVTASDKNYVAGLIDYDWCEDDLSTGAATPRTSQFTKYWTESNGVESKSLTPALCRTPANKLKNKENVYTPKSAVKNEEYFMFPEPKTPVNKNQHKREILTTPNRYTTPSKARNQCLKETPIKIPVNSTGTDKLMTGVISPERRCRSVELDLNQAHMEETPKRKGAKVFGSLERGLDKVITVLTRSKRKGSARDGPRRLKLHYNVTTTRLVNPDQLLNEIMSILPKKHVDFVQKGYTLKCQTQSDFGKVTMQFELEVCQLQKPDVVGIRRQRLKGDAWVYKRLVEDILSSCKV
Protocol: MELK (5-20 mU diluted in 50 mM Tris pH 7.5, 0.1 mM EGTA, 0.1% b-mercaptoethanol, 1 mg/ml BSA) is assayed against a substrate peptide ([…]) in a final volume of 25.5 μl containing 50 mM Tris pH 7.5, 0.05% b-mercaptoethanol, 200 μM substrate peptide, 10 mM magnesium acetate and 0.05 mM [33P-g-ATP] (50-1000 cpm/pmole) and incubated for 30 min at room temperature. Assays are stopped by addition of 5 μl of 0.5 M (3%) orthophosphoric acid and then harvested onto P81 Unifilter plates with a wash buffer of 50 mM orthophosphoric acid.

SMILES | percentage inhibition of VEG-FR (VEG-FR) [percentage] | percentage inhibition of RSK2 (RSK2) [percentage] | percentage inhibition of IKKe (IKKe) [percentage] | percentage inhibition of CHK2 (CHK2) [percentage] | percentage inhibition of MST2 (MST2) [percentage] | percentage inhibition of MNK2 (MNK2) [percentage] | percentage inhibition of PKA (PKA) [percentage] | percentage inhibition of MELK (MELK) [percentage]
c1cc2[nH]nc3c2c(n1)N(C1CCC1)CCC3 [Example 22, 6-cyclobutyl-6,7,8,9-tetrahydro-2H-1,2,5,6-tetraazabenzo[cd]azulene] | 0 | 8 | 0 | 11 | 20 | 0 | 0 | 10
c1cc2[nH]nc3c2c(n1)N(C1CCCC1)CCC3 [Example 23, 6-cyclopentyl-6,7,8,9-tetrahydro-2H-1,2,5,6-tetraazabenzo[cd]azulene] | – | 5 | 0 | 0 | 0 | 0 | 0 | 1
c1cc2[nH]nc3c2c(n1)N(C1CCOCC1)CCC3 [Example 29, 6-(tetrahydro-2H-pyran-4-yl)-6,7,8,9-tetrahydro-2H-1,2,5,6-tetraazabenzo[cd]azulene] | 9 | 0 | 9 | 2 | 10 | 0 | 0 | 24
CN1CCC(N2Cc3ccccc3-c3n[nH]c4ccnc2c34)CC1 [Example 55] | 19 | 21 | 5 | 80 | 28 | 40 | 0 | 78
CC(C)n1ncc2c1CN(C1CCN(C)CC1)c1nccc3[nH]nc-2c13 [Example 68] | 42 | 54 | 0 | 53 | 2 | 18 | 0 | 72
